Data from ChEMBL document CHEMBL1201862, “PubChem BioAssay data set” (2004).
Where a name gives a salt, the structure may show the parent alone. Active and inactive are the calls of the source.

Legend:
[1] = molecular target: 5-hydroxytryptamine receptor 2A (Mus musculus, UniProt P35363); type: functional, cell-based;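 note: CHO-K1 cells with tagged receptor and beta-arrestin; agonist potency measured as compound-induced activation of the receptor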
[2] = molecular target: Mu-type opioid receptor (Homo sapiens, UniProt P35372); type: functional, cell-based;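 note: U2OS cells with beta-arrestin recruitment to OPRM1 by beta-gal complementation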
[3] = molecular target: Voltage-gated inwardly rectifying potassium channel KCNH2 (Homo sapiens, UniProt Q12809); details: Potency;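 note: confirmatory quantitative high-throughput screen measuring inhibition of hERG channel activity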
[4] = system: HEK293; assay: cells; type: functional, cell-based; details: Homo sapiens
[5] = molecular target: T1, Nuclear receptor subfamily 0 group B member 1 (Homo sapiens, UniProt P51843); assay: Luminescence-based cell-based high throughput dose response assay for inhibitors of the orphan nuclear receptor subfamily 0, group B, member 1 (DAX1; NR0B1). [Related pubchem assays (depositor defined):AID504766, AID504790]; type: functional
T1 sequence (P51843 whole entry): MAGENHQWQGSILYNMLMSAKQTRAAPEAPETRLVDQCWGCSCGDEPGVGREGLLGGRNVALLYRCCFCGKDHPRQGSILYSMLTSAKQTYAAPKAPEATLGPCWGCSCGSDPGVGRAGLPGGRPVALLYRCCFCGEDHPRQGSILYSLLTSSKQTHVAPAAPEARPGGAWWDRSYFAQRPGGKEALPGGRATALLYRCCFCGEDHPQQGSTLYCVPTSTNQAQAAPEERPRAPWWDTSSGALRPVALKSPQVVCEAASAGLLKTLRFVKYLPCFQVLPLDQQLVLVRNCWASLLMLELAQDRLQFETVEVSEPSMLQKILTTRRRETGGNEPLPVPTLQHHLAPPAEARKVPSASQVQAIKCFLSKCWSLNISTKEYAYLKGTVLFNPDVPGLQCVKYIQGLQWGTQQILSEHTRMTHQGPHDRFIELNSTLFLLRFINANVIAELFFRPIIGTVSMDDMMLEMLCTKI

[6] = molecular target: Trypsin (Sus scrofa, UniProt P00761); assay: trypsin protease activity blockade – biochemical, quenched peptide fluorescence, cherry-pick, selectivity assay for Rce1 protease inhibitor project, dose response (AID 488789)
[7] = molecular target: T2, CAAX prenyl protease 2 (Saccharomyces cerevisiae S288c, UniProt Q03530); type: biochemical
T2 sequence (Q03530 whole entry): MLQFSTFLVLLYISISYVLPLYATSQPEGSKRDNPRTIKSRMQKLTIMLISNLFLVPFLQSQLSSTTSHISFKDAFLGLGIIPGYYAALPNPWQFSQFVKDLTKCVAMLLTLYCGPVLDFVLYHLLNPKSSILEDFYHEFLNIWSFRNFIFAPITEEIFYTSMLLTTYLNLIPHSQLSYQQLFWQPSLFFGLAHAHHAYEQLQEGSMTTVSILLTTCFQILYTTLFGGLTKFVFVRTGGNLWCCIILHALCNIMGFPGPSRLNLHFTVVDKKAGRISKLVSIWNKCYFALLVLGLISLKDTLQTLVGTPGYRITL

[8] = molecular target: CAAX prenyl protease 2 (Homo sapiens, UniProt Q9Y256); assay: inhibition of Ras-converting CAAX protease Rce1 – biochemical, yeast membranes, quenched-peptide fluorescence, cherry-pick, dose response (AID 588849)
[9] = NIH-3T3 fibroblast cytotoxicity, dose response, cytotoxicity control, cell-based, fluorescence, Alamar Blue, secondary assay (AID 2327); type: functional;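 note: NIH-3T3 mouse fibroblasts cultured with fluconazole at 8 µg/mL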
[10] = fluconazole-exposed Candida albicans growth modulators – fluorescence, retest, confirmation (AID 2467); type: functional, cell-based
[11] = Luminescence Cell-Based Dose Retest to Confirm Inhibitors of Cancer Stem Cells. [Related pubchem assays (depositor defined):AID2717, AID2721]; type: functional; details: Homo sapiens
[12] = molecular target: T3, DNA repair and recombination protein RAD54-like (Homo sapiens, UniProt Q92698); assay: RAD54 Holliday junction migration blockers – biochemical, fluorescence, cherry-picked samples, dose series, confirmation (AID 651657); type: functional
T3 sequence (Q92698 whole entry): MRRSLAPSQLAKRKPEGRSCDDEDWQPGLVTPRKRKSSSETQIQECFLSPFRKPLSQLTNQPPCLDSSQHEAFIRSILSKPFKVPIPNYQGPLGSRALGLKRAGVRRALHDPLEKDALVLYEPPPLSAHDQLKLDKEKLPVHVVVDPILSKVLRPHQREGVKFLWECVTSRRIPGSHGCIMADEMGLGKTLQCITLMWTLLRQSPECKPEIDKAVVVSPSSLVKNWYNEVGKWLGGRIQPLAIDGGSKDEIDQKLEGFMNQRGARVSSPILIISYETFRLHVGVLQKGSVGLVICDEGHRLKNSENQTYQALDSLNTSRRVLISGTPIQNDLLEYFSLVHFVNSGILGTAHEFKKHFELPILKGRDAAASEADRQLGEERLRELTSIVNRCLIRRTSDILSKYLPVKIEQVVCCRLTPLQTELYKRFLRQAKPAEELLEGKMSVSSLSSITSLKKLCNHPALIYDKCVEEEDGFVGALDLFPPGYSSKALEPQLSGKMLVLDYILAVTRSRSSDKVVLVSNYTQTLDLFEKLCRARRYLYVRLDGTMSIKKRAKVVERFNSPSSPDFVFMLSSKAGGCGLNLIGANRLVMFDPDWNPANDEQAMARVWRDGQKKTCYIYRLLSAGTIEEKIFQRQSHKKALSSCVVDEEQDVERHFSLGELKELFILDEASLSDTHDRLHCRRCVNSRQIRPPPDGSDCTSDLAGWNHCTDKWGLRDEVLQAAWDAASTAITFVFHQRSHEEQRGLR

[13] = Trypanosoma cruzi growth suppression in host cells – NIH3T3 host cells, beta-gal luminescence, confirmation (AID 2044); type: functional, cell-based;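 note: intracellular parasites grown in NIH/3T3 mouse fibroblasts as host cells; luminescent beta-galactosidase reporter signal from transgenic T. cruzi replicating inside host cells; inhibitors lower the luminescence signal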
[14] = system: Streptococcus; assay: GAS UMAA2166 growth inhibition – luminescence, BacTiterGlo, counter-screen for streptokinase expression inhibitor project, dose response (AID 1915); type: functional, organism-based;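 note: potency for reduction of bacterial viability or growth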
[15] = system: Streptococcus sp. 'group A'; assay: Streptococcus pyogenes SK(-)GAS viability under kanamycin – luminescence, BacTiterGlo, confirmation, counter-screen for streptokinase expression inhibitor project, dose response (AID 1900); type: functional, organism-based
[16] = system: INS1; assay: INS-1E survival protection against cytokine death – cell-based, luminescence, retest, dose response (AID 449756); type: functional; details: Rattus norvegicus;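 note: cell death triggered by IL-1 beta plus TNF-alpha plus IFN-gamma mixture; protective hits raise ATP signal compared with cytokine alone wells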
[17] = molecular target: Type-1 angiotensin II receptor (Homo sapiens, UniProt P30556); assay: antagonism of angiotensin II type 1 receptor – cell-based, uHTS hits, selectivity assay for APJ receptor antagonist project, dose response (AID 463214); type: functional;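 note: antagonist potency against angiotensin II stimulated AT1 response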
[18] = molecular target: Beta-galactosidase (Escherichia coli, UniProt Q8VNN2); assay: PubChem AID 485352; type: functional
[19] = NIH3T3 cell viability loss – ATP luminescence, mouse fibroblasts, counter-screen, dose response (AID 2010); type: functional, cell-based;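 note: cells exposed to compound for about 90 hours before reading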
[20] = molecular target: Phospholipase A2 (Homo sapiens, UniProt P04054); type: functional;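 note: confirmatory dose-response counterscreen on phospholipase A2, testing hits that came from an ultra-high-throughput screen for ATG4B inhibitors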
[21] = molecular target: Cysteine protease ATG4B (Homo sapiens, UniProt Q9Y4P1); type: functional;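 note: Fluorescence-based dose-response confirmation assay measuring inhibition of ATG4B activity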
[22] = molecular target: T4, Calpain-2 catalytic subunit (Sus scrofa, UniProt P43367); assay: m-calpain protease blockers, concentration series – biochemical, fluorogenic peptide substrate, dose response (AID 1420); type: functional
T4 sequence (P43367 whole entry): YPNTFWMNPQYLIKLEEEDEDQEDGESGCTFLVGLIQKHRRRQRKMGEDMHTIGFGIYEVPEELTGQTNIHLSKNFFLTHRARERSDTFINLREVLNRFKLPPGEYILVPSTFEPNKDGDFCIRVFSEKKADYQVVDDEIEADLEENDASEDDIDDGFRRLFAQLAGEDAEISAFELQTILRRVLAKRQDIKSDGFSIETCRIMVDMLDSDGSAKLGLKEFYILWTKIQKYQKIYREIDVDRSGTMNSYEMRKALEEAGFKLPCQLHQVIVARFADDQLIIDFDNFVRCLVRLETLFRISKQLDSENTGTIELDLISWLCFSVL

[23] = cells; type: functional, cell-based
[24] = cells; type: functional, cell-based; remark: listed apart in the source
[25] = molecular target: T5, Microphthalmia-associated transcription factor (Homo sapiens, UniProt O75030); assay: reducers of TRPM1 reporter luminescence, concentration series – cell-based, SK-MEL-5, cherry-picked, set 3, MITF inhibitor project, dose response (AID 493073); type: functional;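 note: SK-MEL-5 melanoma cells with luciferase driven by the MITF target TRPM1 promoter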
T5 sequence (O75030 whole entry): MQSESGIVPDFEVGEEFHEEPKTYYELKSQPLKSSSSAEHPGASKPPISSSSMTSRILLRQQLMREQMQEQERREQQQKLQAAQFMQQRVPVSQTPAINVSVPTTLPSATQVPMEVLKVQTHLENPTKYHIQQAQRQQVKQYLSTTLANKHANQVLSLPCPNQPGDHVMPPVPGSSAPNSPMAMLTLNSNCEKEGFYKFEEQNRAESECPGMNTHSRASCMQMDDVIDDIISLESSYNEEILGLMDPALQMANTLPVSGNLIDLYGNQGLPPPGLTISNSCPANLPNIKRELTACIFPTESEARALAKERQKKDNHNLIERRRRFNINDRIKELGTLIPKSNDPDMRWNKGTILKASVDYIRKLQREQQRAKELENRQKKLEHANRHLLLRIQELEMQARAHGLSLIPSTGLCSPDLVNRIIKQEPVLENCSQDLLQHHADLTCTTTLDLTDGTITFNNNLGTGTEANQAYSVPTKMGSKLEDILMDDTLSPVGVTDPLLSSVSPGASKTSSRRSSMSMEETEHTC

[26] = molecular target: Beta-2 adrenergic receptor (Homo sapiens, UniProt P07550); assay: ADRB2 activation measured by internalization – cell-based, FAP fluorogen, flow cytometry, cherry pick 1, dose response (AID 588763); type: functional
[27] = molecular target: SUMO-activating enzyme (Homo sapiens, UniProt Q9UBT2); assay: blockers of UBC9-mediated SUMO conjugation – biochemical, AlphaScreen, SUMOylation inhibitor project, confirmation (AID 2018); type: functional
[28] = molecular target: Peroxisome proliferator-activated receptor gamma/Nuclear receptor coactivator 2 (Homo sapiens, UniProt P37231); type: functional;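 note: agonist potency for raising coactivator recruitment to the receptor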
[29] = molecular target: Peroxisome proliferator-activated receptor gamma/Nuclear receptor coactivator 1 (Homo sapiens, UniProt P37231); type: functional;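 note: agonist potency as compounds enhance coactivator SRC-1 recruitment to PPARgamma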
[30] = viability of PTEN-deleted HCT116 cells – cell-based, HCT116 PTEN knockout, dose response (AID 1047); type: functional;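 note: HCT116 colon tumor cells with PTEN knocked out; cells exposed to compound for 60 hours before readout; potency for loss of cell viability measured by luminescence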
[31] = viability of HCT116 lacking mutant beta-catenin – cell-based, human colon tumor, dose response (AID 1045); type: functional;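 note: HCT116 colon tumor cells with beta catenin knocked out; cells exposed to compound for 60 hours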
[32] = molecular target: Peroxisome proliferator-activated receptor gamma/Nuclear receptor coactivator 3 (Homo sapiens, UniProt P37231); type: functional;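 note: agonist potency for raising coactivator recruitment to the receptor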

Sequence of Cysteine protease ATG4B (Q9Y4P1 whole entry): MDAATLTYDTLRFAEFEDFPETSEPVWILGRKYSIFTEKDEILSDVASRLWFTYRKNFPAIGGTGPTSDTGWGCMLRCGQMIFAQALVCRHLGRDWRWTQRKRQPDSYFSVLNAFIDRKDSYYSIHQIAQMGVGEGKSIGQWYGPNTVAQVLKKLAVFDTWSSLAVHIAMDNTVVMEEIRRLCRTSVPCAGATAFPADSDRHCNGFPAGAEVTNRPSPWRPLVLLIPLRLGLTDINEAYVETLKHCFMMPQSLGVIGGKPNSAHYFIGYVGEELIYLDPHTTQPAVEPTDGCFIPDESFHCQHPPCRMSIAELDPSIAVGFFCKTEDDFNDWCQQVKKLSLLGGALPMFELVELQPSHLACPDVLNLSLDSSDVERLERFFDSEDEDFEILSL
Sequence of CAAX prenyl protease 2 (Homo sapiens, UniProt Q9Y256) (Q9Y256 whole entry): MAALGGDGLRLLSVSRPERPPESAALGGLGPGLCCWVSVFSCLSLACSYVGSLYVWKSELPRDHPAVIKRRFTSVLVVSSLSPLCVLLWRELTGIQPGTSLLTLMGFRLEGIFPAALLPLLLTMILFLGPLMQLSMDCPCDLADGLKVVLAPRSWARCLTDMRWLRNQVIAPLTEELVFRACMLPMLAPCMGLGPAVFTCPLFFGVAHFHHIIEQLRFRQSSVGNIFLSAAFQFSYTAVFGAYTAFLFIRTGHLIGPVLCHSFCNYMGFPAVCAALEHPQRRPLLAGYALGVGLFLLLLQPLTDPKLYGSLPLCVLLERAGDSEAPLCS
Sequence of Phospholipase A2 (P04054 whole entry): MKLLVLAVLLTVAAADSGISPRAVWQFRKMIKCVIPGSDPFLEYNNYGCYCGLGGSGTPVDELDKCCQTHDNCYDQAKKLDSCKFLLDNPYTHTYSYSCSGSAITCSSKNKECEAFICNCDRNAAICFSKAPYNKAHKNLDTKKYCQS
Sequence of Type-1 angiotensin II receptor (P30556 whole entry): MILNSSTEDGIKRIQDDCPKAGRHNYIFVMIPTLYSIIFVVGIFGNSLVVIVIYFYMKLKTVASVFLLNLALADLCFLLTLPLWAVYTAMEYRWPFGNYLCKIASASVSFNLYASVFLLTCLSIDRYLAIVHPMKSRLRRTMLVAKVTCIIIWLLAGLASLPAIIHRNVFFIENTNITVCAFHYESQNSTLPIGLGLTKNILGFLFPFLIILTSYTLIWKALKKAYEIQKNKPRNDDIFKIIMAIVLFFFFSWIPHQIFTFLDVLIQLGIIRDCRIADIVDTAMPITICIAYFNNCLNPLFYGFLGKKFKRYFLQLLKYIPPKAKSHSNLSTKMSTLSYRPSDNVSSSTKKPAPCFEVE
Sequence of Beta-2 adrenergic receptor (P07550 whole entry): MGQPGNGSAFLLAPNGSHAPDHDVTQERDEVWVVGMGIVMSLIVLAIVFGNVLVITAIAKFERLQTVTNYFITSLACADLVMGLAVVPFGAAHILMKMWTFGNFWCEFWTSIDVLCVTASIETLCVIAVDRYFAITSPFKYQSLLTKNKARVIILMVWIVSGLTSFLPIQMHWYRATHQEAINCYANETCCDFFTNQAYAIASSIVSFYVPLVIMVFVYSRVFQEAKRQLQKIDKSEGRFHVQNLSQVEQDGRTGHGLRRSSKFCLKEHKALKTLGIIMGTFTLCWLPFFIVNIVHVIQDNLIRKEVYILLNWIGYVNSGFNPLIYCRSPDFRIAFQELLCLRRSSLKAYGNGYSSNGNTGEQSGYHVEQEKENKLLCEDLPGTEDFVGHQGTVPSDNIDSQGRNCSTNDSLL
Sequence of Voltage-gated inwardly rectifying potassium channel KCNH2 (Q12809 whole entry): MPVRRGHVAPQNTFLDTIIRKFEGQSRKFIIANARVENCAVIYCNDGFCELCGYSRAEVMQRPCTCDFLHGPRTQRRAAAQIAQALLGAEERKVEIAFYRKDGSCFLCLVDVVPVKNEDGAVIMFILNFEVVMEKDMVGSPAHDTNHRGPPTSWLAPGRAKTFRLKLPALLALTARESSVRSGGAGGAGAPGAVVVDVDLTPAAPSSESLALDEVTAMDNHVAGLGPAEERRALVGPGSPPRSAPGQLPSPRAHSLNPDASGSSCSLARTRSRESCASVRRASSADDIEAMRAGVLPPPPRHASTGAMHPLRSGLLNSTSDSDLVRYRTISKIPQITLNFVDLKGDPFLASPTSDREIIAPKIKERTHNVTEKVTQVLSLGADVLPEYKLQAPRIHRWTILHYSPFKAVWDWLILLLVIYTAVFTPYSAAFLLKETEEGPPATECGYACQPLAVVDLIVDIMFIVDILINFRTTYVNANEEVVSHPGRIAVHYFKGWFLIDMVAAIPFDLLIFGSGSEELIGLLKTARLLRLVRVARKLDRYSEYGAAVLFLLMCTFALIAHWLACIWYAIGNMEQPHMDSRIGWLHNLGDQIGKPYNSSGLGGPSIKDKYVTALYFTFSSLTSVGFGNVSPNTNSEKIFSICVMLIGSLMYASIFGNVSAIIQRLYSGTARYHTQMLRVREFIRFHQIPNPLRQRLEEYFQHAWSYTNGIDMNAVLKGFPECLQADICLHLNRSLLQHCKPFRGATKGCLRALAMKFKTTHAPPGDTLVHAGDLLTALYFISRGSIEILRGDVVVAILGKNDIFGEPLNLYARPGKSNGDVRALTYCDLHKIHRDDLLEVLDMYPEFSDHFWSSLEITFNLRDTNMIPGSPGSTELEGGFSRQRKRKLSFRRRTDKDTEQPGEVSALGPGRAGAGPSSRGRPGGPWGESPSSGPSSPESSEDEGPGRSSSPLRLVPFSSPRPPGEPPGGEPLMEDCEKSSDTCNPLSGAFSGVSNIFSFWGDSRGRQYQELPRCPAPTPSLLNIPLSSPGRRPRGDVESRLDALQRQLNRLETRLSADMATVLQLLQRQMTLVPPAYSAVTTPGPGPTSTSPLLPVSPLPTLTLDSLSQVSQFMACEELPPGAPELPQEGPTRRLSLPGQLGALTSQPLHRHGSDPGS
Sequence of Beta-galactosidase (Q8VNN2 whole entry): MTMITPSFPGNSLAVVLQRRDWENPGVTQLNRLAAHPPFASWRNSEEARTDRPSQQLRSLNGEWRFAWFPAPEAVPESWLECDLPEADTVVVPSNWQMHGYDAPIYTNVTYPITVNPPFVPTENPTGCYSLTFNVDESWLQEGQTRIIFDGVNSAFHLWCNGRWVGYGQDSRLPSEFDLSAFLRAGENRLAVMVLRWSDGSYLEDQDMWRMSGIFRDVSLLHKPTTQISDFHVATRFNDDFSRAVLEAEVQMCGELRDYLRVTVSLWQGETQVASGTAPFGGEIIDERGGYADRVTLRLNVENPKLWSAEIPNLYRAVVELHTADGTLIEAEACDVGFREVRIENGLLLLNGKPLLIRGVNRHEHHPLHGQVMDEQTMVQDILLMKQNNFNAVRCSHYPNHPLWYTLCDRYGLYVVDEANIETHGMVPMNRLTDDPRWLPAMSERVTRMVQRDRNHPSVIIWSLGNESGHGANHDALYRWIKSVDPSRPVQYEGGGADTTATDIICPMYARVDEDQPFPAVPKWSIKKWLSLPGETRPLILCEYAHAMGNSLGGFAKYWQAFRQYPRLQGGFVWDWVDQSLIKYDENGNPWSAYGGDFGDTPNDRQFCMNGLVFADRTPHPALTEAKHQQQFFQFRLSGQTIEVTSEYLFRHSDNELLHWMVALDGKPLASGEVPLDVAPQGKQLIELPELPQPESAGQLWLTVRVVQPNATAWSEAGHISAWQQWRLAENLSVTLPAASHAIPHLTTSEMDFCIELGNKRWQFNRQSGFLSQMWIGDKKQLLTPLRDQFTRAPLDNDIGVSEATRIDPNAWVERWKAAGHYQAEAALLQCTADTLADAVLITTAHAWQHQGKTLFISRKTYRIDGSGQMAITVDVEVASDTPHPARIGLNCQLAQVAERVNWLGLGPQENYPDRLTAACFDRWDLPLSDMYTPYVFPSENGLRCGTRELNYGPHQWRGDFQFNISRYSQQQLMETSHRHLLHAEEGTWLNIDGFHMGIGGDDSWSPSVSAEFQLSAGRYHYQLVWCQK
Sequence of Trypsin (P00761 whole entry): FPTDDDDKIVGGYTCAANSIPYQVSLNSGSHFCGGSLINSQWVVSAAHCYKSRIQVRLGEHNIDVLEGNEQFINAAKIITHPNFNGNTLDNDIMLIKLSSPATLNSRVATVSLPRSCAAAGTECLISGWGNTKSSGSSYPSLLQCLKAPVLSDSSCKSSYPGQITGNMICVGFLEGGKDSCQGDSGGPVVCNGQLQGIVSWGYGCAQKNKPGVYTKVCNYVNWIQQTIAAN
Sequence of 5-hydroxytryptamine receptor 2A (P35363 whole entry): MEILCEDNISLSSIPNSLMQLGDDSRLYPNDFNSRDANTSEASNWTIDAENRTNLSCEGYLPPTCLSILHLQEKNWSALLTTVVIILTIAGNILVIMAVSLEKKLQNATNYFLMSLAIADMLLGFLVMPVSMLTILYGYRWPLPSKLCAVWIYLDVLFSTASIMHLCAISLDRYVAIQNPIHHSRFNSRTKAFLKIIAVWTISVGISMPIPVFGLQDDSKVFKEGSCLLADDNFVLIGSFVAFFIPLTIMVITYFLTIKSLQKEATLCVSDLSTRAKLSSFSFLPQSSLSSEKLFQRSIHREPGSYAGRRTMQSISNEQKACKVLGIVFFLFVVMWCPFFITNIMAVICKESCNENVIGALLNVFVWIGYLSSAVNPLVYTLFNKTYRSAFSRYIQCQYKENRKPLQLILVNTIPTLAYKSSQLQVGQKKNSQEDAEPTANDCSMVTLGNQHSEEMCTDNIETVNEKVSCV
Sequence of Mu-type opioid receptor (P35372 whole entry): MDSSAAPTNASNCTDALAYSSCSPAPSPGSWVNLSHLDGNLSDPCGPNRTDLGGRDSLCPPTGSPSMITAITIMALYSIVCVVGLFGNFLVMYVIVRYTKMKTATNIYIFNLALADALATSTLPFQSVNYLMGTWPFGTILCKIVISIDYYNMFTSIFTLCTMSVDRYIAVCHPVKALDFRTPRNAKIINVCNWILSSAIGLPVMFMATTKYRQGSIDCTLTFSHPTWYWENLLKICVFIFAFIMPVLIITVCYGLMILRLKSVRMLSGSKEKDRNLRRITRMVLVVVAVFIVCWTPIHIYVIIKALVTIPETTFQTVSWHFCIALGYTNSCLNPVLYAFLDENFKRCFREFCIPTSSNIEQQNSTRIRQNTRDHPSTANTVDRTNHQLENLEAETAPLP

SMILES: CCCN1CC[C@@H]2c3cc(O)ccc3CC[C@@H]21
- EC50 [1]: 76.1 µM (inactive)
- EC50 [2]: 92.5 µM (inactive)
- AC50 [3]: 35.5 µM (inconclusive)

SMILES: O=C(Nc1nc(-c2ccccc2)ns1)c1ccncc1
- IC50 [4]: > 67.5 µM (inactive)
- IC50 [5]: > 67.5 µM (inactive)

SMILES: CCc1cc(=O)oc2c(C)c(OC(C)C(=O)NC3CC(C)(C)NC(C)(C)C3)ccc12 (stereo unspecified)
- AC50 [6]: 14.1 µM (active)
- AC50 [7]: 17.5 µM (active)
- AC50 [8]: 17 µM (active)

SMILES: Cc1cc(C(=O)NNc2ccc(F)cc2F)no1
- EC50 [9]: 2.93 µM (active)
- EC50 [10]: > 38 µM (not active)
- IC50 [4]: > 67.5 µM (inactive)
- IC50 [5]: > 67.5 µM (inactive)
- AC50 [11]: 1.1 µM (active)

SMILES: CCCN(CCC)c1nc(-c2ccccn2)nc2ccccc12
- AC50 [12]: 13.3 µM (active)
- EC50 [13]: 0.374 µM (active)
- EC50 [14]: 1.85 µM (active)
- EC50 [15]: 1.02 µM (active)
- AC50 [16]: 1.77 µM (active)
- IC50 [17]: 23.9 µM (not active)
- EC50 [18]: > 40 µM (inactive)
- EC50 [19]: 1.76 µM (active)

SMILES: O=C(COC(=O)c1cc(Cl)ccc1[N+](=O)[O-])NCc1ccc(Cl)cc1Cl
- IC50 [20]: 11.2 µM (active)
- IC50 [21]: 16.3 µM (active)
- IC50 [22]: 6.14 µM (not active)

SMILES: CC(C)(C)n1ncc2c(=O)n(Cc3ccccc3Br)cnc21
- IC50 [20]: 7.12 µM (active)
- IC50 [21]: 10.8 µM (active)

SMILES: CNCCCC1c2ccccc2C=Cc2ccccc21 [PROTRIPTYLINE HYDROCHLORIDE]
- AC50 [3]: 31.6 µM (inconclusive)

SMILES: COc1cc(C(=O)N/N=C(\c2ccccc2)c2ccccn2)cc(OC)c1OC
- EC50 [23]: 10.3 µM (active)
- EC50 [13]: 0.473 µM (active)
- EC50 [24]: > 350 µM (not active)
- AC50 [25]: 13.8 µM (active)
- AC50 [16]: 0.499 µM (active)
- IC50 [17]: > 40 µM (not active)
- EC50 [18]: > 40 µM (inactive)
- EC50 [19]: 0.75 µM (active)

SMILES: CC1CCC(NC(=O)CCS(=O)(=O)c2ccc3c(c2)CCN3C(=O)C2CC2)CC1 (stereo unspecified)
- EC50 [26]: 0.522 µM (active)

SMILES: O=C(Nc1ccc2oc(-c3ccc4ccccc4c3)nc2c1)c1ccc2c(c1)OCCO2
- IC50 [27]: 38.9 µM (active)
- EC50 [28]: 22.1 µM (not active)
- EC50 [29]: 27.1 µM (not active)
- EC50 [30]: 12.4 µM (active)
- EC50 [26]: 5.58 µM (active)
- EC50 [31]: 18.4 µM (active)
- EC50 [32]: 37.1 µM (not active)

SMILES: CN1c2ccccc2-c2nc3ccccc3n2C1c1cccs1 (stereo unspecified)
- AC50 [6]: 0.989 µM (active)
- AC50 [7]: 4.28 µM (active)
- AC50 [8]: 0.769 µM (active)
